# Source: patent US20230293535A1, “ERBB/BTK INHIBITORS” (Dizal (Jiangsu) Pharmaceutical Co., Ltd., priority 2018, published 2023)
# Where two headings read alike, the source gives them in different places.
# Columns and labels:
# [1] = biological target: T1, human EGFR exon 20 H773_V774insNPH (Homo sapiens, UniProt P00533, INS773NPH); assay: EGFR Exon20 NPH insertion cellular phosphorylation inhibition (MSD pEGFR Y1068/total EGFR); format: cell-based; details: Ba/F3 EGFR NPH ins cells, 4 h compound, p-EGFR(Y1068)/total EGFR;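 further: IL3-independent Ba/F3 cells with constitutively phosphorylated EGFR, compound exposure at 37 °C under 5% CO2, electrochemiluminescent MSD measurement of the p-EGFR to total EGFR ratio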
# T1 construct: host or cells: Ba/F3
# [2] = tested on: human hepatocytes; assay: In vitro human hepatocytes clearance assay; details: mixed gender human hepatocytes, incubation up to 100 min
# [3] = tested on: Ba/F3 EGFR NPH ins cells; assay: Cell proliferation, Ba/F3 EGFR NPH ins (CellTiter-Glo, 72 h); format: cell-based;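 further: IL3-independent cells carrying constitutively phosphorylated EGFR, compound dilution series, viable cells quantified by ATP luminescence, growth relative to DMSO wells after subtracting pre-dosing (day 0) baseline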
# [4] = tested on: TMD-8 cells; assay: BTK (wt) cell proliferation, TMD-8 (CellTiter-Glo, 72 h); format: cell-based; details: read-out: BTK WT TMD-8 GI50;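 further: viable cells quantified by ATP-based luminescence, proliferation expressed as percent of DMSO control after subtracting a time-zero baseline plate read at dosing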
# [5] = tested on: OCI-LY-10 cells; assay: BTK (wt) cell proliferation, OCI-LY-10 (CellTiter-Glo, 72 h); format: cell-based; details: read-out: BTK WT OCI-LY-10 GI50;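 further: viable cells quantified via cellular ATP luminescence, proliferation given as percent of DMSO control after subtracting a duplicate plate read at time of dosing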
# [6] = tested on: WT EGFR cell line A-431; assay: Cell proliferation, WT EGFR A431 (CellTiter-Glo, 72 h); format: cell-based;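 further: proliferation from a luminescent ATP viability signal, expressed as 100 × (treated minus time-zero plate) over (DMSO control minus time-zero plate), cells grown with 10% FBS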
# Description: (§1) WT or mutant cells were seeded in 384 well plates at appropriate concentrations with corresponding growth media supplemented with 10% FBS, for each experiment, identical plates were prepared in duplicates, and the plates were incubated overnight. On the next day, one of each duplicated plates was dosed with tested compounds at a series of concentrations, and another one of the duplicated plate was analysied for G0 value. The dosed plates were incubate for another 72 h at 37° C. with 5% CO2 and the number of viable cells in each well of the G0 plates or the dosed plates were measured by CellTiter-Glo® Luminescent Cell Viability Assay (Promega). This assay is a luminescent method for determining the number viable cells through measurement of cellular ATP concentration by detection of luciferase activity. Detection reagents (15 µl) was dispensed into per well, and the plates were incubate for 30 min at room temperature. Then, the luminescence in each well was measured using the Envision plate reader (PerkinElmer). The percentage of proliferation was calculated based on the formula: %Proliferation= 100 × (G3 value of sample well-Go value)/(G3 value of DMSO control-Go value).
# [7] = tested on: DB cells; assay: BTK (wt) cell proliferation, DB (CellTiter-Glo, 72 h); format: cell-based; details: read-out: Non-BCR activated DB GI50;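 further: DB cells in 384-well plates given a dilution series of compound, viable cells read by ATP luminescence, growth expressed versus DMSO control after subtracting a time-zero plate reading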
# [8] = biological target: T2, human Her2 exon 20 insertion mutation YVMA (Homo sapiens, UniProt P04626, INS775YVMA); assay: Her2 Exon 20 YVMA insertion cellular phosphorylation inhibition (MSD p-Her2 Y1248/total Her2); format: cell-based; details: Her2 YVMAins cells, 4 h compound;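 further: lentivirally transduced NIH-3T3 cells in 1% FBS medium, electrochemiluminescent MSD read-out, graded compound concentrations at 37 °C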
# T2 construct: expressed in transfected cells; host or cells: NIH-3T3, lentiviral transduction, puromycin selection
# T2 sequence (P04626 with tags, fused parts or gaps INS775YVMA): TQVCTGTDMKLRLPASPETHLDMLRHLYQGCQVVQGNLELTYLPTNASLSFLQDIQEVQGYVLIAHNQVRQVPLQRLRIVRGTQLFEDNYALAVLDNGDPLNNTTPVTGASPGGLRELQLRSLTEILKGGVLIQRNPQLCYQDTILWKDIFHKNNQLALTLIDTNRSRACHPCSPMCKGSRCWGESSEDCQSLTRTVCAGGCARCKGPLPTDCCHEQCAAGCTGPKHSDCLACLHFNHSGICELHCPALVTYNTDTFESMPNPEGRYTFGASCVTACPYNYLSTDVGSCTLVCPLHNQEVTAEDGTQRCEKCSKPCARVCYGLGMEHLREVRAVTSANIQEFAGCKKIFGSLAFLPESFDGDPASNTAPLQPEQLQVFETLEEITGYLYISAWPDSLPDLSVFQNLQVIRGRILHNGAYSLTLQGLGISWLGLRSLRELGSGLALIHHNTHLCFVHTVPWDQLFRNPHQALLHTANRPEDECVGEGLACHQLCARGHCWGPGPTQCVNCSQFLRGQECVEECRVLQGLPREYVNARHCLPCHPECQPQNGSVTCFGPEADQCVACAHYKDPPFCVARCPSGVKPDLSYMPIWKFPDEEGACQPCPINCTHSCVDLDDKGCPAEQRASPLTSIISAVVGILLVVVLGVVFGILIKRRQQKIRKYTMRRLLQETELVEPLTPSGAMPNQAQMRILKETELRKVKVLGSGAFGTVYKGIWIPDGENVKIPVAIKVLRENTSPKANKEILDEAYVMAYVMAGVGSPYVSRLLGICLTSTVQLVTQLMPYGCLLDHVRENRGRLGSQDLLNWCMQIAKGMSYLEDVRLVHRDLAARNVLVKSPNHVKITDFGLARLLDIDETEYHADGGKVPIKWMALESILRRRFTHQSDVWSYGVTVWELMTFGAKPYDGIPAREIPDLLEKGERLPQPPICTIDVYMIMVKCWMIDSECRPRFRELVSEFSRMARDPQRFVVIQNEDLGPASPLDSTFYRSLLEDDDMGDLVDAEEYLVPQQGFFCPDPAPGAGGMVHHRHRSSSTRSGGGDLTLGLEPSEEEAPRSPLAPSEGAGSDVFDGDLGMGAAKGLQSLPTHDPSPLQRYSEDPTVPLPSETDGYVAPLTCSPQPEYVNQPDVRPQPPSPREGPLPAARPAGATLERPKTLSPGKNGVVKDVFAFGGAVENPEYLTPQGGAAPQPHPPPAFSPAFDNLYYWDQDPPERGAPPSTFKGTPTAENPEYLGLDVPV
# [9] = tested on: NCI-H1975 EGFR L858R/T790M cells; assay: Cell proliferation, NCI-H1975 EGFR L858R/T790M (CellTiter-Glo, 72 h); format: cell-based;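 further: viable cells quantified by luciferase-based ATP luminescence, proliferation expressed relative to DMSO-treated wells (100%) after subtracting a parallel plate read at the time of dosing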
# [10] = tested on: Ba/F3 EGFR ASV ins cells; assay: Cell proliferation, Ba/F3 EGFR ASV ins (CellTiter-Glo, 72 h); format: cell-based;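 further: IL3-independent Ba/F3 cells transduced with EGFR V769_D770insASV, cellular ATP luminescence after compound exposure, growth relative to DMSO control with the day-0 baseline reading subtracted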
# [11] = tested on: Her2 exon 20 insertion YVMA transduced NIH-3T3 cell line; assay: Cell proliferation, Her2 YVMAins NIH-3T3 (CellTiter-Glo, 72 h); format: cell-based;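 further: viable cells quantified by ATP luminescence, growth over a day-zero baseline plate expressed as percent of DMSO control growth, compound dilution series in 10% FBS medium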
# Description: as §1
# [12] = tested on: Ri-1 cells; assay: BTK (wt) cell proliferation, Ri-1 (CellTiter-Glo, 72 h); format: cell-based; details: read-out: BTK WT Ri-1 GI50;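 further: viable cells quantified as cellular ATP luminescence, proliferation normalized to a time-zero plate and the DMSO control, compounds tested across a dilution series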
# [13] = biological target: T3, human EGFR exon 20 V769_D770insASV (Homo sapiens, UniProt P00533, INS769ASV); assay: EGFR Exon20 ASV insertion cellular phosphorylation inhibition (MSD pEGFR Y1068/total EGFR); format: cell-based; details: Ba/F3 EGFR ASV ins cells, 4 h compound, p-EGFR(Y1068)/total EGFR;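 further: electrochemiluminescent readout on an MSD SECTOR Imager, IL3-independent transduced cells in medium with 1% FBS, compound concentration series at 37 °C and 5% CO2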
# T3 construct: expressed in transfected cells; host or cells: Ba/F3 (DSMZ ACC-300), lentiviral transduction, puromycin selection, IL3 depletion
# T3 sequence (P00533 with tags, fused parts or gaps INS769ASV): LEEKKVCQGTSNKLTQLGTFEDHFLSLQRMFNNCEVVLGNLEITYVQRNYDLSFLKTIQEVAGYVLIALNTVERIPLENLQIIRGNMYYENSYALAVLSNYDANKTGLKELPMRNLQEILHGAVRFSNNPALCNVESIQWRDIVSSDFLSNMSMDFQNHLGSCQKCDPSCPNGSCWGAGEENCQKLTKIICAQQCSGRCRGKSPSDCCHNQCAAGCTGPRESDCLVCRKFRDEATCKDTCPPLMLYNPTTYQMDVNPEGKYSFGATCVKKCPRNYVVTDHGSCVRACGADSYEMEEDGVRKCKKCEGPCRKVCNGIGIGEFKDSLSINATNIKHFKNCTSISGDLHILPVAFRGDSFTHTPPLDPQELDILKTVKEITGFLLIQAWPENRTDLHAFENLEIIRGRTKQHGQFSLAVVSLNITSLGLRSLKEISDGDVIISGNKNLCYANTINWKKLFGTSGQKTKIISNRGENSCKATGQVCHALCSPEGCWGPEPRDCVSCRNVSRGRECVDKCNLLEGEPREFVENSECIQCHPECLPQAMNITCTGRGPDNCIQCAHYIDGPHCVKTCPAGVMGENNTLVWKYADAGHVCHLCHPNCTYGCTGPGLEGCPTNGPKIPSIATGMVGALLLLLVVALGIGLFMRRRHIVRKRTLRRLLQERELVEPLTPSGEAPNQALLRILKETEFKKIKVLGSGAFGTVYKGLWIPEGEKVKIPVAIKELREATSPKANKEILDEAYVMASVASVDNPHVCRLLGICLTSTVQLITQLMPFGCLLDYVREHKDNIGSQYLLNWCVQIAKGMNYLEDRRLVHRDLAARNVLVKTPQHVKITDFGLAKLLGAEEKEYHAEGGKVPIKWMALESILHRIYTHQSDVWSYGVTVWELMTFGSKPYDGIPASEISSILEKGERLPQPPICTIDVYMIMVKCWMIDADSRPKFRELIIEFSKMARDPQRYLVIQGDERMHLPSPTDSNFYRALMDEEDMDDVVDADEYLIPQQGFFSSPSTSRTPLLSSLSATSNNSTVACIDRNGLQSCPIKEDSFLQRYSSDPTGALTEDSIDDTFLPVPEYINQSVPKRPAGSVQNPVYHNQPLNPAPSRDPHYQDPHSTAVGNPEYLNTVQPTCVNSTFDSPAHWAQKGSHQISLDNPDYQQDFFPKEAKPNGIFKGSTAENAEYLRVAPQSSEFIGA
# [14] = biological target: T4, WT EGFR (Homo sapiens, UniProt P00533); assay: WT EGFR cellular phosphorylation inhibition in A-431 (hEGF stimulated, MSD); format: cell-based; details: A431 cells, 4 h compound, then 100 ng/ml hEGF 10 min;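 further: electrochemiluminescence read-out of EGFR Tyr1068 phosphorylation expressed as ratio to total EGFR, cells kept in medium with 1% FBS, compounds tested as a concentration series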
# T4 construct: host or cells: A-431
# T4 sequence (P00533 25-1210): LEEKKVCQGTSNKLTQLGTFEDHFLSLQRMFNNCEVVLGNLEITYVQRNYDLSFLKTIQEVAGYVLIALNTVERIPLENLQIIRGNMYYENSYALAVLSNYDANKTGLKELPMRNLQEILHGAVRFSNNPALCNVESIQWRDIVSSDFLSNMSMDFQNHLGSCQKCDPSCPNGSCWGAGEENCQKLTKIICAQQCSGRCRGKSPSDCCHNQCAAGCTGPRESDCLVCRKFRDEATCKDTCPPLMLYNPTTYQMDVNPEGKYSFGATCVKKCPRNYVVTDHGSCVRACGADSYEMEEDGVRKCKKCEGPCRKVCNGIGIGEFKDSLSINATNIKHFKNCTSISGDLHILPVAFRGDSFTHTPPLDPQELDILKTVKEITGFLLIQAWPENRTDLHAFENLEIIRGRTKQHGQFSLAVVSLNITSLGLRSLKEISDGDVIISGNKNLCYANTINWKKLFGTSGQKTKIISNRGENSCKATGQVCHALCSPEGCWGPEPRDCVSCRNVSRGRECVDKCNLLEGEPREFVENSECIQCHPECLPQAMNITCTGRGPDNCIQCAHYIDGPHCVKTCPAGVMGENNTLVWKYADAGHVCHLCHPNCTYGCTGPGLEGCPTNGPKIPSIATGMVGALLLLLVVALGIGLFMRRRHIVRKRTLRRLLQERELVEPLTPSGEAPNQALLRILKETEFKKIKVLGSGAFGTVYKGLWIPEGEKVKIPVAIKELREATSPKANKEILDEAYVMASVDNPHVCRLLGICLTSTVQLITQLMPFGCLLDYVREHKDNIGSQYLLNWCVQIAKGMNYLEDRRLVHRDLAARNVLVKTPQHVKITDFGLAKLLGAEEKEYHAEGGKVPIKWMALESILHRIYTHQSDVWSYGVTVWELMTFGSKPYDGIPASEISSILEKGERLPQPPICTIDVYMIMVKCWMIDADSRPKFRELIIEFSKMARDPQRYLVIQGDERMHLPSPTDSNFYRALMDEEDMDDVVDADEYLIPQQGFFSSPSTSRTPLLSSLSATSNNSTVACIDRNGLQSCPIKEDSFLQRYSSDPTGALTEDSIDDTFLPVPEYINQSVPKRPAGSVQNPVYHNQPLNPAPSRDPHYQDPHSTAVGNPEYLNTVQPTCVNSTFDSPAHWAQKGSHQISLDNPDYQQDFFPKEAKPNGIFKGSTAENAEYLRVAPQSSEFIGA
# [15] = tested on: rat hepatocytes; assay: In vitro rat hepatocytes clearance assay; details: male rat hepatocytes, 1 µM-range incubation up to 100 min
# Description: (§2) The protocol for rat/human hepatocytes metabolic stability assay is employed to determine the clearance of the compounds of the present disclosure in vitro.
# (§3) Rat hepatocytes in male gender and human hepatocytes in mixed gender were obtained from commercial vendors (e.g., BioreclamationIVT) and stored at -150° C. prior to use. 10 mM stock solutions of tested compounds were prepared in DMSO. Thawing medium and supplement incubation medium (serum-free) were placed in a 37° C. water bath for at least 15 minutes prior to use. Stock solutions were diluted to 100 µM by combining 198 µL acetonitrile and 2 µL of 10 mM stock solution.
# (§4) Vials of cryopreserved hepatocytes were removed from storage, ensured that vials remain at cryogenic temperatures. The vials were thawed in a 37° C. water bath with gently shaking. Vials were kept in water bath until all ice crystals had dissolved and were no longer visible. Vials were sprayed with 70% ethanol before being transferred to a biosafety cabinet. And then the contents were poured into the 50 mL thawing medium conical tube. Vials were centrifuged at 100 g for 10 minutes at room temperature.
# (§5) Cell viability and density were counted using a Trypan Blue exclusion, and then cells were diluted with serum-free incubation medium to a working cell density of 1 × 10^6 viable cells/ml. […] The inactivated hepatocytes were used to prepare negative samples, which were used to exclude the misleading factor that resulted from instability of chemical itself.
# (§6) Aliquots of 247.5 µL hepatocytes were dispensed into each well of a 96-well non-coated plate. The plate was placed in the incubator on an orbital shaker for approximately 10 minutes. Aliquots of 2.5 µL of the 100 µM test compounds were added into respective wells of the non-coated 96-well plate to start the reaction. This assay was performed in duplicate. The plate was incubated in the incubator on an orbital shaker for the designed time points. […] Samples were centrifuges for 20 minutes at 4000 g and aliquots of 100 µL of the supernatants were used for LC-MS/MS analysis for measurement of test compounds
# (§7) In vitro hepatocyte clearance was estimated based on determination of elimination half-life (T½) of compounds disappearance from their initial concentrations. Peak area ratios of each compound (test or control) to IS was calculated. Ln (%Control) versus Incubation Time (min) curve was plotted, and the slope of a linear fitting line was calculated.
# [16] = biological target: T5, EGFR L858R&T790M (Homo sapiens, UniProt P00533, L858R/T790M); assay: EGFR L858R and T790M cellular phosphorylation inhibition in NCI-H1975 (MSD); format: cell-based; details: NCI-H1975 cells, 4 h compound, p-EGFR(Y1068)/total EGFR; read-out: EGFR L858R and T790M mutation IC50;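 further: phosphorylated and total EGFR detected by electrochemiluminescence, cells exposed to compound in medium containing 1% FBS at 37 °C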
# T5 construct: host or cells: NCI-H1975
# T5 sequence (P00533 25-1210 T790M/L858R): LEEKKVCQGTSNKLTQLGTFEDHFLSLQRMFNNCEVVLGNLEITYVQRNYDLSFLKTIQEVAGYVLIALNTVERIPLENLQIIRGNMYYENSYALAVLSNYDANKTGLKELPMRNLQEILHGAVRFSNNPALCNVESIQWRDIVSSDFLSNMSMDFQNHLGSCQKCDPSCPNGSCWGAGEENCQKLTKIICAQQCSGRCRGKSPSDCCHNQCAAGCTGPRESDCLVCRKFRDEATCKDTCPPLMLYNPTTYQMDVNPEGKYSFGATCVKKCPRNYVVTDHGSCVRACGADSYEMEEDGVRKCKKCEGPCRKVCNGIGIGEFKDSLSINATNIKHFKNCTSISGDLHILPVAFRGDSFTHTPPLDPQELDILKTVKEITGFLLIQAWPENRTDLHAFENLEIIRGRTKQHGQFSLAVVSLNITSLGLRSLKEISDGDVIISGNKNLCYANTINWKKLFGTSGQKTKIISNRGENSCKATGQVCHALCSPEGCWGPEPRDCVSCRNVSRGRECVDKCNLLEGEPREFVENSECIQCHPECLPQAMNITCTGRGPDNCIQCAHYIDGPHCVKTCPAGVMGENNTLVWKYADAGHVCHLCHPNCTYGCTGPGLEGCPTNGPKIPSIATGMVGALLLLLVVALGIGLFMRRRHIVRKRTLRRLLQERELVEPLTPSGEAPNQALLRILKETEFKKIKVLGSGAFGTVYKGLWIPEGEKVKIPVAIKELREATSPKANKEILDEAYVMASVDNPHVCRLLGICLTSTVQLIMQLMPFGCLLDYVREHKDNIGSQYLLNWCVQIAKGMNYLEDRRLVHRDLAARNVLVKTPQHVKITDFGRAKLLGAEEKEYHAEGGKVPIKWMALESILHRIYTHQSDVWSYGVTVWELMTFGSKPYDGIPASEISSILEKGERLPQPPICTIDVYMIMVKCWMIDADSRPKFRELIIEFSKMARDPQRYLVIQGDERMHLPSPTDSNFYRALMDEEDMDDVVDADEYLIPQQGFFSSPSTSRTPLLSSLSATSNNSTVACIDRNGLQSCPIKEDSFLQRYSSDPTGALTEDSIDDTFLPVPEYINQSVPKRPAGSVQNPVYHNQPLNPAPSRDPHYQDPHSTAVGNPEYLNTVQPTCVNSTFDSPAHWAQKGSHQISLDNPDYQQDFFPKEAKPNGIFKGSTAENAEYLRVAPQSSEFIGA
# [17] = biological target: T6, BTK (Homo sapiens, UniProt Q06187); assay: BTK target site occupancy ELISA (PBMC); format: cell-based; details: BTK receptor occupancy
# Description: (§8) An enzyme-linked immunosorbent assay (ELISA) method for the detection of free uninhibited Btk in mouse and human lysates. Human or mouse whole blood were incubated with compound for 2 hour at 37° C. Whole blood were lysed in ice-cold lysis buffer containing 50 mM Tris-HCl, pH 7.5, 150 mM NaCl, 1 mM EDTA,1% Triton X-100. […] Samples were transferred to a streptavidin-coated 96-well ELISA plate and mixed while shaking for 1 hour at room temperature. The α-Btk antibody (1:500; clone number D3H5, Cell signaling Technology, Danvers, MA, USA) was then added to the well and incubated for 1 hour at room temperature. After wash, goat α-rabbit-FW (1:5000 dilution in PBS+ 0.05% Tween-20 + 1% BSA) was added to each well and incubated for 1 h at room temperature. The ELISA was developed with addition of tetramethyl benzidine (TMB) followed by Stop Solution and read at OD 450 nm.
# [18] = biological target: T7, Phospho-BTK (Tyr223) (Homo sapiens, UniProt Q06187); assay: p-BTK assay in Ramos cells (HTRF Phospho-BTK Tyr223); format: cell-based; details: pervanadate stimulated, read-out: p-BTK (Romas) IC50
# T7 construct: endogenous in cells; host or cells: Ramos
# Description: The assay plates were then incubated for 30 minutes at 37° C., 5% CO2. 300 uM Per vanadate (3X) was added to each well and the assay plates were again incubated for 60 minutes at 37° C., 5% CO2. Phospho-BTK (Tyr223) is detected using the HTRF® reagents (Cisbio) according to the manufacturer’s one-plate assay protocol.
# [19] = biological target: T6, BTK; assay: BTK target site occupancy ELISA (Ramos); format: cell-based; set-up: endogenous in cells; host or cells: Ramos; details: BTK receptor occupancy, read-out: Occupancy (Romas) IC50
# Description: as §8
# [20] = in vitro; details: both, human, hepatocytes, human hepatocytes Clint (µL/min/10^6cells)
# [21] = in vitro; details: male, rat, hepatocytes, rat hepatocytes Clint (µL/min/10^6cells)
# Description: as §2, §3, §4, §5, §6, §7
# [22] = Ba/F3 EGFR NPH ins, 72 h proliferation, read-out: EGFR Exon20 NPH insertion GI50
# [23] = TMD-8 cells, 72 h, CellTiter-Glo
# [24] = OCI-LY-10 cells, 72 h, CellTiter-Glo
# [25] = A431, 72 h proliferation, read-out: EGFR WT A431 GI50
# [26] = NCI-H1975, 72 h proliferation, read-out: EGFR L858R and T790M mutation GI50
# [27] = Ba/F3 EGFR ASV ins, 72 h proliferation, read-out: EGFR Exon20 ASV insertion GI50
# [28] = Her2 YVMAins cells, 72 h proliferation, read-out: Her2 Exon 20 YVMA insertion GI50
# [29] = Ri-1 cells, 72 h, CellTiter-Glo
Structure (SMILES),IC50 [1],human hepatocytes Clint (µL/min/10^6cells) [2],"GI50 [3, 22]","GI50 [4, 23]","GI50 [5, 24]","GI50 [6, 25]","GI50 ([7]; DB cells, CellTiter-Glo)",IC50 [8],"GI50 [9, 26]","GI50 [10, 27]","GI50 [11, 28]","GI50 [12, 29]",IC50 [13],IC50 [14],rat hepatocytes Clint (µL/min/10^6cells) [15],IC50 [16],further results
"C=CC(=O)Nc1cc(Nc2ncnc(Nc3cc(Cl)c(F)cc3C(C)(O)CC)n2)c(OC)cc1N1CC[C@@H](N(C)C)C1 (single isomer, unassigned) [Compound 70, N-(5-(4-(5-chloro-4-fluoro-2-((R)-2-hydroxybutan-2-yl)phenylamino)-1,3,5-triazin-2-ylamino)-2-((R)-3-(dimethylamino)pyrrolidin-1-yl)-4-methoxyphenyl)acrylamide or N-(5-(4-(5-chloro-4-fluoro-2-((S)-2-hydroxybutan-2-yl)phenylamino)-1,3,5-triazin-2-ylamino)-2-((R)-3-(dimethylamino)pyrrolidin-1-yl)-4-methoxyphenyl)acrylamide]",67.5 nM,3.69 µL/min/10^6cells,65.8 nM,10.2 nM,22.2 nM,15.4 nM,> 3000 nM,15.7 nM,9.1 nM,65.4 nM,72 nM,88.9 nM,22.3 nM,71.2 nM,12.9 µL/min/10^6cells,1.5 nM,–
"C=CC(=O)Nc1cc(Nc2nccc(Nc3cc(Cl)c(F)cc3C(C)(O)CC)n2)c(OC)cc1N1CC[C@@H](N(C)C)C1 (single isomer, unassigned) [Compound 77, N-(5-(4-(5-chloro-4-fluoro-2-((R)-2-hydroxybutan-2-yl)phenylamino)pyrimidin-2-ylamino)-2-((R)-3-(dimethylamino)pyrrolidin-1-yl)-4-methoxyphenyl) acrylamide or N-(5-(4-(5-chloro-4-fluoro-2-((S)-2-hydroxybutan-2-yl)phenylamino)pyrimidin-2-ylamino)-2-((R)-3-(dimethylamino)pyrrolidin-l-yl)-4-methoxyphenyl) acrylamide]",44.8 nM,7.87 µL/min/10^6cells,81.9 nM,1.19 nM,1.23 nM,32.4 nM,1750 nM,21.5 nM,3.6 nM,102 nM,109 nM,1.55 nM,50.8 nM,303 nM,15.8 µL/min/10^6cells,1.7 nM,IC50 [17]: 1.7 nM; IC50 [18]: 1.6 nM; IC50 [19]: 0.49 nM
"C=CC(=O)Nc1cc(Nc2ncnc(Nc3cc(Cl)c(F)cc3C(C)(O)CC)n2)c(OC)cc1N1CC[C@@H](N(C)C)C1 (stereo partly drawn) [Compound 59, N-(5-(4-(5-chloro-4-fluoro-2-(2-hydroxybutan-2-yl)phenylamino)-1,3,5-triazin-2-ylamino)-2-((R)-3-(dimethylamino)pyrrolidin-1-yl)-4-methoxyphenyl) acrylamide]",16.4 nM,–,–,–,–,–,–,3.5 nM,–,–,–,–,13.3 nM,25.7 nM,–,0.5 nM,"hepatocyte CLint at 1 µM [20]: 3.75 µL/min/1e6 cells; GI50 ([3]; Ba/F3 EGFR, 72 h, read-out: EGFR Exon20 NPH insertion GI50 (nM)): 29.1 nM; GI50 ([4]; Homo sapiens, TMD8, 72 h): 4.78 nM; GI50 ([5]; Homo sapiens, OCI-Ly10, 72 h): 17.1 nM; GI50 ([6]; Homo sapiens, A-431, 72 h, read-out: EGFR WT A431 GI50 (nM)): 10.7 nM; GI50 ([7]; Homo sapiens, DB): > 3000 nM; GI50 ([9]; Homo sapiens, NCI-H1975, 72 h, read-out: EGFR L858R and T790M mutation GI50 (nM)): 2 nM; GI50 ([10]; Ba/F3 EGFR, 72 h, read-out: EGFR Exon20 ASV insertion GI50 (nM)): 29.8 nM; GI50 ([11]; Mus musculus, NIH3T3, 72 h, read-out: Her2 Exon 20 YVMA insertion GI50 (nM)): 62.2 nM; GI50 ([12]; Ri-1, 72 h): 26.9 nM; hepatocyte CLint at 1 µM [21]: 14.1 µL/min/1e6 cells"
